Assay results from PubChem BioAssay AID493223 (Johns Hopkins Ion Channel Center, 2011).
Activity calls are given as the source filed them.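 The calls were made as follows: active = compound that raises the TRPC4 channel signal at some tested dose, with a fitted concentration curve; inactive = the rest.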

The compounds below were run against Transient receptor potential cation channel C4 (TRPC4), mouse (assay: potentiators of mouse TRPC4 calcium response – cell-based, HEK293 TRPC4, Fluo-4 calcium flux, dose response (AID 493223)). Conditions: HEK293 TRPC4 cells, Fluo-4 calcium fluorescence ratio.

SMILES	EC50
CN(C)CCN(C)Cc1cc(Br)ccc1O	1780 nM
CCN1CCN(Cc2cc(Br)ccc2O)CC1	860 nM

Same assay, conditions: HEK293 TRPC4 cells, Fluo-4 calcium fluorescence ratio; at 20 µM (top of the series)

SMILES	fluorescence ratio, higher = potentiation
Oc1ccc(Br)cc1CN1CCCCC1	inactive
CC1CC(C)CN(Cc2cc(Cl)ccc2O)C1 (stereo not drawn)	inactive
COCCN(C)Cc1cc(Cl)ccc1O	inactive
CCN(CC)Cc1cc(Br)ccc1O	inactive
Oc1ccc(F)cc1CN1CCN(CC2CCCO2)CC1 (stereo not drawn)	inactive
Oc1ccc(Cl)cc1CN1CCOc2ccccc21	inactive
CC1CCN(Cc2cc(Br)ccc2O)CC1	inactive
CC1CCN(Cc2cc(F)ccc2O)CC1	inactive
Oc1ccc(F)cc1CN1CCOCC1	inactive
CCN(CC)Cc1cc(F)ccc1O	inactive
Oc1ccc(F)cc1CN1CCN(c2ccccn2)CC1	inactive
CC1CCN(Cc2cc(Cl)ccc2O)CC1	inactive
Oc1ccc(Cl)cc1CN1CCN(c2ccc(F)cc2F)CC1	inactive
CN1CCN(Cc2cc(Br)ccc2O)CC1	inactive
Oc1ccc(Br)cc1CN1CCCC1	inactive
Oc1ccc(F)cc1CN1CCCC1	inactive
Oc1ccc(Br)cc1CN1CCN(c2ncccn2)CC1	inactive
Oc1ccc(F)cc1CN1CCC(N2CCOCC2)CC1	inactive
Oc1ccc(Cl)cc1CN1CCCC1	inactive
CN1CCN(Cc2cc(F)ccc2O)CC1	inactive
CCN(CC)Cc1cc(Cl)ccc1O	inactive
Oc1ccc(F)cc1CN1CCN(c2ccncc2)CC1	inactive
CC(C)(C)OC(=O)N1CCN(Cc2cc(Br)ccc2O)CC1	inactive
Oc1ccc(Cl)cc1CN1CCN(c2ncccn2)CC1	inactive
Oc1ccc(F)cc1CN1CCOc2ccccc21	inactive
Oc1ccc(Cl)cc1CN1CCCCC1	inactive

SMILES	fluorescence ratio, higher = potentiation
Oc1ccc(F)cc1CN1CCCCC1	inactive
Oc1ccc(Br)cc1CN1CCN(c2ccccn2)CC1	inactive
COc1ccc(N2CCN(Cc3cc(Br)ccc3O)CC2)cc1	inactive
Oc1ccc(Cl)cc1CN1CCN(c2ccccn2)CC1	inactive
CC(C)(C)OC(=O)N1CCN(Cc2cc(F)ccc2O)CC1	inactive
CN(C)CCN(C)Cc1cc(F)ccc1O	inactive
CC1CC(C)CN(Cc2cc(Br)ccc2O)C1 (stereo not drawn)	inactive
Oc1ccc(F)cc1CN1CCN(c2ccc(F)cc2F)CC1	inactive
COCCN(C)Cc1cc(Br)ccc1O	inactive
CC(C)(C)OC(=O)N1CCN(Cc2cc(Cl)ccc2O)CC1	inactive
Oc1ccc(Br)cc1CN1CCC(N2CCOCC2)CC1	inactive
COCCN(C)Cc1cc(F)ccc1O	inactive
COc1ccc(N2CCN(Cc3cc(Cl)ccc3O)CC2)cc1	inactive
COc1ccc(N2CCN(Cc3cc(F)ccc3O)CC2)cc1	inactive
CC1CC(C)CN(Cc2cc(F)ccc2O)C1 (stereo not drawn)	inactive
Oc1ccc(Br)cc1CN1CCN(c2ccc(F)cc2F)CC1	inactive
Oc1ccc(Br)cc1CN1CCOc2ccccc21	inactive
Oc1ccc(Br)cc1CN1CCN(c2ccncc2)CC1	inactive
CN1CCN(Cc2cc(Cl)ccc2O)CC1	inactive
Oc1ccc(F)cc1CN1CCN(c2ncccn2)CC1	inactive
Oc1ccc(Br)cc1CN1CCN(CC2CCCO2)CC1 (stereo not drawn)	inactive
Oc1ccc(Cl)cc1CN1CCN(CC2CCCO2)CC1 (stereo not drawn)	inactive
Oc1ccc(Cl)cc1CN1CCC(N2CCOCC2)CC1	inactive
Oc1ccc(Br)cc1CN1CCOCC1	inactive
Oc1ccc(Cl)cc1CN1CCN(c2ccncc2)CC1	inactive
